Structures are written as SMILES. Where a name gives a salt, the structure may show the parent alone. Read-outs that look alike come from different tables or passages of the source. Where only a bound is given, the exact number is not on record here.

Assay [1] deals with PI3Kγ (p110γ) Recombinant Human Protein (Homo sapiens (Human), UniProt P48736). As to the kind of experiment: PI3K-γ scintillation proximity assay. The note with it: 20 μM PIP2, 2 μM ATP, 13 nM PI3Kγ, 120 min, room temperature. Format: biochemical. The gist of the method: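 Radiometric SPA in 20 mM MOPS pH 6.7, 10 mM MgCl2, 5 mM DTT, 0.03% CHAPS, 2% DMSO. Stopped with EDTA and WGA SPA beads for scintillation counting. IC50 fitted from % solvent-control activity versus log concentration.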
(In general: In a scintillation proximity assay essentially only radioactivity close to the scintillant gives light.)

The target in assay [2] is PI3Kδ (p110δ/p85α) Recombinant Human Protein (Homo sapiens (Human), UniProt O00329). The assay is described as follows: PI3Kδ scintillation proximity assay. Format: biochemical. The following applies: 20 μM PIP2, 2 μM ATP, 3.4 nM PI3Kδ, 120 min, room temperature; read-out: PI3Kδ IC50. The gist of the method: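 Recombinant human p110δ/p85α was run at room temperature in 20 mM MOPS pH 6.7, 10 mM MgCl2, 5 mM DTT, 0.03% CHAPS, 2% DMSO. Substrates were 20 µM PIP2 and 2 µM ATP with [γ-33P]ATP. Product was captured overnight on WGA SPA beads and counted by scintillation; IC50 fitted from percent of solvent control versus log concentration.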

Assay [3] has as its system Phosphorylated Ribosomal Protein S6 (RPS6) in THP-1 cells. As to the kind of experiment: THP-1 RPS6 ELISA assay. Format: cell-based, Human. The following applies: Homo sapiens, serum starved, 2 h compound, 10 nM MCP-1 for 15 min, phospho-RPS6 ELISA, read-out: PI3Kγ_THP1_RPS6_ELISA IC50. The gist of the method: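 Serum-starved THP-1 cells (2×10^5/well, RPMI) preincubated with compound 2 h at 37° C, then stimulated with 10 nM MCP-1 for 15 min. Lysates assayed by phospho-RPS6 ELISA, absorbance 450 nm (540 nm correction); IC50 from percent inhibition versus log concentration.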

Chain of PI3Kγ (p110γ) Recombinant Human Protein (P48736 whole entry): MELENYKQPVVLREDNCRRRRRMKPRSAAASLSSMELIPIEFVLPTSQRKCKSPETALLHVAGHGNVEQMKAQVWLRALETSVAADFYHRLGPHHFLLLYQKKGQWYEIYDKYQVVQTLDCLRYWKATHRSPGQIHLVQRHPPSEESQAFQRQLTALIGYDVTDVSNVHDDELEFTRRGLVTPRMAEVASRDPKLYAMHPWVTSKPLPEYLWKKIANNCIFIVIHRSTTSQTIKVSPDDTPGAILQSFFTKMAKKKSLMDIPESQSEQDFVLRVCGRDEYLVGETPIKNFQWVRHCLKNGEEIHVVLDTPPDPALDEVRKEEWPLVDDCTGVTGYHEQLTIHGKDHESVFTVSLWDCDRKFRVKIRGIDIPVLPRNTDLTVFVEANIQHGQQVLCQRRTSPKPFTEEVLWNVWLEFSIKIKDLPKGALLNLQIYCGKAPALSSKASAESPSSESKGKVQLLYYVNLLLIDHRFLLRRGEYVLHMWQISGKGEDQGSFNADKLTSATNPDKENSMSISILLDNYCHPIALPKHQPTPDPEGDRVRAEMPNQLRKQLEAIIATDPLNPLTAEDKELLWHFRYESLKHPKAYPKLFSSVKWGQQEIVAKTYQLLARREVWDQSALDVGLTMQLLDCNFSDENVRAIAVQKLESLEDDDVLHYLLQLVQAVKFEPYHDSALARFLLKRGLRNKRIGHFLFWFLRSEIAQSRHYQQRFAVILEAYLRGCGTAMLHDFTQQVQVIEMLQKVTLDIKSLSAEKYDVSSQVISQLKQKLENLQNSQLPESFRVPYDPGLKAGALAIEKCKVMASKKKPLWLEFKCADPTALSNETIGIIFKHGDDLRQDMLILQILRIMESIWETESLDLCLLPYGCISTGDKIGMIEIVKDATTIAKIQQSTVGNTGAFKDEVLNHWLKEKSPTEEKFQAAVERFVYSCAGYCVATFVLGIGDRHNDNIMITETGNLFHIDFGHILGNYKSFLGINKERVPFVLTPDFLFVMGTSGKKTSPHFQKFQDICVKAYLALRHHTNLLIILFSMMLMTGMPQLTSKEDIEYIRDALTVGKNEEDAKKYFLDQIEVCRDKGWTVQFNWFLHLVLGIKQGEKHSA
Chain of PI3Kδ (p110δ/p85α) Recombinant Human Protein (O00329 whole entry): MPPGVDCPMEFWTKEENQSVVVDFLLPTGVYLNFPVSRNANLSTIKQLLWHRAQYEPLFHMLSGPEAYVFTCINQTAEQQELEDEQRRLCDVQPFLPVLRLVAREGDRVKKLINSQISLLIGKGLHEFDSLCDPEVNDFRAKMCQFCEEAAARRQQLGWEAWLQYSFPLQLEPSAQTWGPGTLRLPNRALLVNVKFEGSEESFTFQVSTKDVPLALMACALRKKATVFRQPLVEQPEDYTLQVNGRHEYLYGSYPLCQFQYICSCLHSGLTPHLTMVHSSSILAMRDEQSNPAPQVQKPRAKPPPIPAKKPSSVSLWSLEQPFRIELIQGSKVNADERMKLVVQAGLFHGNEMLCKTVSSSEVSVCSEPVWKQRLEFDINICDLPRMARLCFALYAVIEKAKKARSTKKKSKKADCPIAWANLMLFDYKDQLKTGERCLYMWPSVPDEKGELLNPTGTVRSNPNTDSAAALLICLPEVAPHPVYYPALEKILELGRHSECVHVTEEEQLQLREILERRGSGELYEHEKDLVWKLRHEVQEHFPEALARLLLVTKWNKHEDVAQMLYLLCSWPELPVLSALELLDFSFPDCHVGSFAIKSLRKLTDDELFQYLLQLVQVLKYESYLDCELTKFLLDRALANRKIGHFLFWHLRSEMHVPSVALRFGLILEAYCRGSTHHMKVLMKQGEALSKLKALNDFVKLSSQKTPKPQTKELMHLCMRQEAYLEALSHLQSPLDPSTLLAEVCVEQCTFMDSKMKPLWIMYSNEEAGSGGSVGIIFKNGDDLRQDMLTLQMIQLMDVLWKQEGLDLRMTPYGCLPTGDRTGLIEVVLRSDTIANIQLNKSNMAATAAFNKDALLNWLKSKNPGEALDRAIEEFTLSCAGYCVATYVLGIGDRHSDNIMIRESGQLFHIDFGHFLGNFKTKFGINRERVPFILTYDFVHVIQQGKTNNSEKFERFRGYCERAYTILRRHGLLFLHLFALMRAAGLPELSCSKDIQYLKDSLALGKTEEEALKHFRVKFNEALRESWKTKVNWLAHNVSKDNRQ
Chain of PI3Kδ (p110δ/p85α) Recombinant Human Protein (P27986 whole entry partner): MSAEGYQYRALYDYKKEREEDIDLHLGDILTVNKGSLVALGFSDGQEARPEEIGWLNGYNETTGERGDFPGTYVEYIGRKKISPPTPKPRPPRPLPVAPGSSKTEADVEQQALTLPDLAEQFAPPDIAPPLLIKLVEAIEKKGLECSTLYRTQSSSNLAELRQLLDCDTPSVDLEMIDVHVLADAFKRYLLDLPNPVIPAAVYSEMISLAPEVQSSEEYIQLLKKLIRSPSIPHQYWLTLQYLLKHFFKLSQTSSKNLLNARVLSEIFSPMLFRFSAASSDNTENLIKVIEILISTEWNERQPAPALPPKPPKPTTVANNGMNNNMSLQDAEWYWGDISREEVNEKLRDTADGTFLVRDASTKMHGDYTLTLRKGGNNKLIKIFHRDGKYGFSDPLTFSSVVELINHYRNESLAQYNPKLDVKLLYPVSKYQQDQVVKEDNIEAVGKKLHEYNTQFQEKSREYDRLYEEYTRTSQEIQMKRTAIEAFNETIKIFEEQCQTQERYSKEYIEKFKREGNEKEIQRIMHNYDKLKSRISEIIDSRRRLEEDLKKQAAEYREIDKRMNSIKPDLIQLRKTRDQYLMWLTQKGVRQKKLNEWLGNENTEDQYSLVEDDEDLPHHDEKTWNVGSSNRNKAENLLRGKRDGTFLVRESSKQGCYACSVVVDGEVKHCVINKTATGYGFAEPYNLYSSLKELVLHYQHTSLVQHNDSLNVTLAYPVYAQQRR

By IC50 is commonly meant the concentration needed to halve the response being measured. Consider `Cc1nc(N)c2ncc(-c3cc(C(O)(C(F)F)C(F)F)ccc3C)n2n1` [Example 112, 2-(3-(4-Amino-2-methylimidazo[2,1-f][1,2,4]triazin-7-yl)-4-methylphenyl)-1,1,3,3-tetrafluoropropan-2-ol trifluoroacetate salt], for which the IC50 is under 100 nM in assay [1]; 500 to 2000 nM in assay [2]; 500 to 1000 nM in assay [3] (THP-1, THP-1 cells).

As for `CNC(=O)C(O)(c1ccc(C)c(-c2cnc3c(N)nc(C(F)(F)F)cn23)c1)C(F)(F)F` (stereo not drawn) [Example 118, 2-(3-(8-Amino-6-(trifluoromethyl)imidazo[1,2-a]pyrazin-3-yl)-4-methylphenyl)-3,3,3-trifluoro-2-hydroxy-N-methylpropanamide], the IC50 in assay [1] was under 100 nM; in assay [2], under 100 nM; in assay [3] (THP-1, THP-1 cells) it was under 100 nM.

With `Cc1ccc(C(O)(C(=O)O)C(F)(F)F)cc1-c1cnc2c(N)nc(C(F)(F)F)cn12` (stereo not drawn) [Example 120, 2-(3-(8-amino-6-(trifluoromethyl)imidazo[1,2-a]pyrazin-3-yl)-4-methylphenyl)-3,3,3-trifluoro-2-hydroxypropanoic acid], the IC50 in assay [1] was under 100 nM; in assay [2] it was 100 to 500 nM; in assay [3] (THP-1, THP-1 cells), over 1000 nM.

For `Cc1ccc(C(O)(C(=O)NC2(C)CNC2)C(F)(F)F)cc1-c1cnc2c(N)nc(C(F)(F)F)cn12` (stereo not drawn) [Example 128, 2-(3-(8-Amino-6-(trifluoromethyl)imidazo[1,2-a]pyrazin-3-yl)-4-methylphenyl)-3,3,3-trifluoro-2-hydroxy-N-(3-methylazetidin-3-yl)propanamide trifluoroacetate salt], the IC50 is under 100 nM in assay [1]; under 100 nM in assay [2]; under 100 nM in assay [3] (THP-1, THP-1 cells).

Turning to `Cc1ccc(C(O)(C(=O)NC23CC(C2)C3)C(F)(F)F)cc1-c1cnc2c(N)nc(C(F)(F)F)cn12` (stereo not drawn) [Example 129, 2-(3-(8-Amino-6-(trifluoromethyl)imidazo[1,2-a]pyrazin-3-yl)-4-methylphenyl)-N-(bicyclo[1.1.1]pentan-1-yl)-3,3,3-trifluoro-2-hydroxypropanamide trifluoroacetate salt], the IC50 was under 100 nM in assay [1]; under 100 nM in assay [2]; under 100 nM in assay [3] (THP-1, THP-1 cells).

Take `Cc1ccc(C(C)(O)C(F)(F)F)cc1-c1cnc2c(N)nc(C#CC3CC3)cn12` (stereo not drawn) [Example 162, 2-(3-(8-Amino-6-(cyclopropylethynyl)imidazo[1,2-a]pyrazin-3-yl)-4-methylphenyl)-1,1,1-trifluoropropan-2-ol trifluoroacetate salt]: the IC50 in assay [1] was under 100 nM; in assay [2] it was 100 to 500 nM; in assay [3] (THP-1, THP-1 cells), 100 to 500 nM.

As for `Cc1ccc(C(O)(CNC(=O)CF)C(F)(F)F)cc1-c1cnc2c(N)nc(C(F)(F)F)cn12` (stereo not drawn) [Example 214, N-(2-(3-(8-amino-6-(trifluoromethyl)imidazo[1,2-a]pyrazin-3-yl)-4-methylphenyl)-3,3,3-trifluoro-2-hydroxypropyl)-2-fluoroacetamide trifluoroacetate salt], the IC50 in assay [1] is under 100 nM; in assay [2], 100 to 500 nM; in assay [3] (THP-1 cells), 100 to 500 nM.

As to `CNC(=O)C(C)(C)C(O)(c1ccc(C)c(-c2cnc3c(N)nc(C(F)(F)F)cn23)c1)C(F)(F)F` (stereo not drawn) [Example 262, 3-(3-(8-Amino-6-(trifluoromethyl)imidazo[1,2-a]pyrazin-3-yl)-4-methylphenyl)-4,4,4-trifluoro-3-hydroxy-N,2,2-trimethylbutanamide], the IC50 in assay [1] was under 100 nM; in assay [2] it was 100 to 500 nM; in assay [3] (THP-1, THP-1 cells), over 1000 nM.

Regarding `Cc1ccc(C(O)(C(F)(F)F)C(F)(F)F)cc1-c1cnc2c(N)nc(-c3ccnn3C)cn12` [Example 264, 2-(3-(8-Amino-6-(1-methyl-1H-pyrazol-5-yl)imidazo[1,2-a]pyrazin-3-yl)-4-methylphenyl)-1,1,1,3,3,3-hexafluoropropan-2-ol], the IC50 in assay [1] was under 100 nM; in assay [2], under 100 nM; in assay [3] (THP-1, THP-1 cells), under 100 nM.

The record behind these values is patent US10738057B2, “Tertiary alcohols as PI3K-γ inhibitors” (Incyte Corporation, priority 2017, dated 2020).
